Assay results as given in doi:10.1101/2023.03.24.534094v2 (biorxiv, 2023).
Like-named read-outs stand apart in the source and are kept apart here.

Columns and labels:
Test in all cases: biochemical
PIM3 = PIM3 (Homo sapiens, UniProt Q86V86)
MAP2K4 = target: T1, MAP2K4 (Homo sapiens, UniProt P45985)
T1 sequence (P45985 1-399): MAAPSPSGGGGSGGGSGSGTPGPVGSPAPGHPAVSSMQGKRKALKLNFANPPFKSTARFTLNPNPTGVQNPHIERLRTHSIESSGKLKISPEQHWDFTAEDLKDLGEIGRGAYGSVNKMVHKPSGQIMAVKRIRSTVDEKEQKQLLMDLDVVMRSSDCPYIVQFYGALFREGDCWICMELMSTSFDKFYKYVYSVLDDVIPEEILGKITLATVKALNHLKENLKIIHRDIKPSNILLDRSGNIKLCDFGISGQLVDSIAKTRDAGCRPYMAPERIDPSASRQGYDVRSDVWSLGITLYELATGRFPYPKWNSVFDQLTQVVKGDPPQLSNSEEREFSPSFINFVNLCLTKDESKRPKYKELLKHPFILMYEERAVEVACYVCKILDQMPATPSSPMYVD

MAPKAPK2 = MAPKAPK2 (Homo sapiens, UniProt P49137)
FGFR2 = FGFR2 (Homo sapiens, UniProt P21802)
CaMK4 = target: T2, CaMK4 (Homo sapiens, UniProt Q16566)
T2 sequence (Q16566 1-473): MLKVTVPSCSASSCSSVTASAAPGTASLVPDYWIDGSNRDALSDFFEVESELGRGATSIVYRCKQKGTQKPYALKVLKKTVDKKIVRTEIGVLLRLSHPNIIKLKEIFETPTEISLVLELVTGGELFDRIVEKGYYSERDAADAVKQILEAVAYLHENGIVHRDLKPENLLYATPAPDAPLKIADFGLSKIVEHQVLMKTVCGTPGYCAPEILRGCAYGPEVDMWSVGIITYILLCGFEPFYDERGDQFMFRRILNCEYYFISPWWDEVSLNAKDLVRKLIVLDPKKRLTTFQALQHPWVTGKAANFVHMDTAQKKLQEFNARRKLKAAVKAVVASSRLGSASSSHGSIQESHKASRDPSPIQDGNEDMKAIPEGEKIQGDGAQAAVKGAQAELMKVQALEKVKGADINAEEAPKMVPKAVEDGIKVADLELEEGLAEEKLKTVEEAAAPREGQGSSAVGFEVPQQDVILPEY

CK2a1 = CK2a1 (Homo sapiens, UniProt P68400)
BRAF = BRAF (Homo sapiens, UniProt P15056)
MSK1b = MSK1b (Homo sapiens, UniProt O75582)
AAK1 = AAK1 (Homo sapiens, UniProt Q2M2I8)
NEK2 = target: T3, NEK2 (Homo sapiens, UniProt P51955)
T3 sequence (P51955 1-445): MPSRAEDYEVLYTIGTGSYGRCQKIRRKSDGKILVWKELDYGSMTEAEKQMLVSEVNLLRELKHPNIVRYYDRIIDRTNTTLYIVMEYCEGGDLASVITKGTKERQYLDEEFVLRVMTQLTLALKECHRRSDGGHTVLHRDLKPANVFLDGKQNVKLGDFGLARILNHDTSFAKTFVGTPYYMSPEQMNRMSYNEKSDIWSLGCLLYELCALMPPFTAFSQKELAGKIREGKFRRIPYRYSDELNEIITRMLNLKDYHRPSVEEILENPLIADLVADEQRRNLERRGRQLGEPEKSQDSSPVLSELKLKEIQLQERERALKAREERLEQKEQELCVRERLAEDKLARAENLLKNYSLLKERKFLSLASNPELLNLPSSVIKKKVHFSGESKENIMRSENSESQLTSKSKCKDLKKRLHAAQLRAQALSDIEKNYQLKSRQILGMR

JNK1 = JNK1 (Homo sapiens, UniProt P45983)
Chain of JNK1 (P45983 whole entry): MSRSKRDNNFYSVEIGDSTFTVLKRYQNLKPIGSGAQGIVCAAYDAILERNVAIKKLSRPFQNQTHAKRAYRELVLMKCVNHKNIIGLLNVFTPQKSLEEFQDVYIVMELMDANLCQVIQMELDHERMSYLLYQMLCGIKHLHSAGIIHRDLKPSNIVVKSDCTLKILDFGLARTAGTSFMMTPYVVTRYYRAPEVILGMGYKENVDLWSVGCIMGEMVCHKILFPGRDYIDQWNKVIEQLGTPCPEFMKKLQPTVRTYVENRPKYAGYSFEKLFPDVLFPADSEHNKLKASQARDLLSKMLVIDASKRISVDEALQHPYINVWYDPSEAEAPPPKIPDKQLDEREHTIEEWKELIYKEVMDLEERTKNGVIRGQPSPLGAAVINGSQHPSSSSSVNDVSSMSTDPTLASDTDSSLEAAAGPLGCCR

Chain of BRAF (P15056 whole entry): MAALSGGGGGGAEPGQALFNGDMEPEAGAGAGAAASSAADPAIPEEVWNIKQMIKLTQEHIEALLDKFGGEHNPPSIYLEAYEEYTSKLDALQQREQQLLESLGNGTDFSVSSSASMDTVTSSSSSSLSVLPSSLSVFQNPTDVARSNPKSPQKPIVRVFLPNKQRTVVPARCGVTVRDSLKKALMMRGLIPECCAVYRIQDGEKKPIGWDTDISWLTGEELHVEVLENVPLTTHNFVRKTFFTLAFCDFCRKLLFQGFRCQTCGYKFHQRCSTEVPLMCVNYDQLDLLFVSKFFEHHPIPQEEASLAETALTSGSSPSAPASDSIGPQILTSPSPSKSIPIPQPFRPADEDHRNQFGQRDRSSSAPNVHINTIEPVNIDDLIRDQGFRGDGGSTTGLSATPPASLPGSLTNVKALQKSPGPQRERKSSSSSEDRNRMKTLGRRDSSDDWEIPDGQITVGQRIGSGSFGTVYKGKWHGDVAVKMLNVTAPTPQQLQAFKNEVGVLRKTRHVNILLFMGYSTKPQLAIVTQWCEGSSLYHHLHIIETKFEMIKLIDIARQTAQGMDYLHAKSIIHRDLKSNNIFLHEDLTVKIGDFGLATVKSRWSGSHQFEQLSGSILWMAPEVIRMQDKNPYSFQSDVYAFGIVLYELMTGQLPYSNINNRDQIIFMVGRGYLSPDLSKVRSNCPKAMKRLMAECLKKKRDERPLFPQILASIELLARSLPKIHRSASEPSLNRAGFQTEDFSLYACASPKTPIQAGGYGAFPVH
Chain of CK2a1 (P68400 whole entry): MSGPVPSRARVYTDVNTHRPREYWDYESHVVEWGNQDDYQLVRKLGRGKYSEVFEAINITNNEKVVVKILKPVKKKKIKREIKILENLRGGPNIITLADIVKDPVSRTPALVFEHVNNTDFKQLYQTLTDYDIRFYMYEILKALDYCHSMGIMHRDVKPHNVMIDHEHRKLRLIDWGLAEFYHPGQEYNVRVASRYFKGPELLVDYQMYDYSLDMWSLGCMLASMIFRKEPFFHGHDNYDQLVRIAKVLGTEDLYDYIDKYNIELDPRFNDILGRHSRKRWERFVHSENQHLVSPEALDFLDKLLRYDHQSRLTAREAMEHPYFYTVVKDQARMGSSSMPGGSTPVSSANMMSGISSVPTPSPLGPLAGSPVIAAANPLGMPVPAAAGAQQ
Chain of AAK1 (Q2M2I8 whole entry): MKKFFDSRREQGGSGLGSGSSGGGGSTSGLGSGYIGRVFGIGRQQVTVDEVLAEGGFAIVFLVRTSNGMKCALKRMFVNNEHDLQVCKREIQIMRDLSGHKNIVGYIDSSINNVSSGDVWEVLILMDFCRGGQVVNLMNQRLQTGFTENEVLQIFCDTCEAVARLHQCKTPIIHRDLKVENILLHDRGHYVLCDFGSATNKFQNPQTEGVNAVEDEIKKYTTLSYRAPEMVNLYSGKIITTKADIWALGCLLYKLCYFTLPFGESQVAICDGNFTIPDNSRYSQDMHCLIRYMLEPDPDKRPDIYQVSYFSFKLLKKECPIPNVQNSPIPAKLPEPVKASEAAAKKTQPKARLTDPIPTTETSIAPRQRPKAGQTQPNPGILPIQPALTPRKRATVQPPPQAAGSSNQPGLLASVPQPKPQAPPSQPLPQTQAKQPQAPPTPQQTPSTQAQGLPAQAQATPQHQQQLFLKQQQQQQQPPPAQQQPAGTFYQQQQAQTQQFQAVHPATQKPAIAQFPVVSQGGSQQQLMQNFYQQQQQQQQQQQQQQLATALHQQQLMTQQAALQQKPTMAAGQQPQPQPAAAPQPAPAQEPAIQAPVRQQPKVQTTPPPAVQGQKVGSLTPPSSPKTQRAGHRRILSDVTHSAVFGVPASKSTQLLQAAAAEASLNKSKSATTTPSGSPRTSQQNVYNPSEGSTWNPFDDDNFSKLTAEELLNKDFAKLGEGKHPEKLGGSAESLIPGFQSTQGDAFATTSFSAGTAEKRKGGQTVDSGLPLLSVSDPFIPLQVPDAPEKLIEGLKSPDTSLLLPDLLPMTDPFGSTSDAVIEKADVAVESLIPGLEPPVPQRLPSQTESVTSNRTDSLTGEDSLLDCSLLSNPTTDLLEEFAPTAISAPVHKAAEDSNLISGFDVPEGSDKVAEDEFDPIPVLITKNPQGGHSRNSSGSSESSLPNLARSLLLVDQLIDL
Chain of FGFR2 (P21802 whole entry): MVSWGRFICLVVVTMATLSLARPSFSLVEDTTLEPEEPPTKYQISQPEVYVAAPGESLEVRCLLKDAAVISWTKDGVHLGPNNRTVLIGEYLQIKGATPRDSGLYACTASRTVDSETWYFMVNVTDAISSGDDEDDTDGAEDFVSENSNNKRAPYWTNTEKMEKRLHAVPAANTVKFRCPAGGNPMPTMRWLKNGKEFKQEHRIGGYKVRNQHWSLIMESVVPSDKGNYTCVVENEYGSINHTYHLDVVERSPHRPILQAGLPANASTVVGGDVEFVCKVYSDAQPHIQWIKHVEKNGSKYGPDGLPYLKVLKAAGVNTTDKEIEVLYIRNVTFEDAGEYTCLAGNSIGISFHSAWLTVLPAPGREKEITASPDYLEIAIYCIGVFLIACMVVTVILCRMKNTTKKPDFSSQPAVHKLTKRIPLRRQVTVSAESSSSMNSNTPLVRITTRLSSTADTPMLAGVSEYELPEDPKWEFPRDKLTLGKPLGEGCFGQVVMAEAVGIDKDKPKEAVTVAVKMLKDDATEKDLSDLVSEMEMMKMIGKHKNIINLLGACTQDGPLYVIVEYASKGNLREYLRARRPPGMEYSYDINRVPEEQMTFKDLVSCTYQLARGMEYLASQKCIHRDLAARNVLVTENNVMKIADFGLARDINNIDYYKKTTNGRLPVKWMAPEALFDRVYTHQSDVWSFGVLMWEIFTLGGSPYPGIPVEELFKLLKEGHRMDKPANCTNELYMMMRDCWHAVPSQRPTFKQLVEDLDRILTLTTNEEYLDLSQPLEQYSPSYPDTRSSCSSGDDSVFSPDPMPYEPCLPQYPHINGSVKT
Chain of MAPKAPK2 (P49137 whole entry): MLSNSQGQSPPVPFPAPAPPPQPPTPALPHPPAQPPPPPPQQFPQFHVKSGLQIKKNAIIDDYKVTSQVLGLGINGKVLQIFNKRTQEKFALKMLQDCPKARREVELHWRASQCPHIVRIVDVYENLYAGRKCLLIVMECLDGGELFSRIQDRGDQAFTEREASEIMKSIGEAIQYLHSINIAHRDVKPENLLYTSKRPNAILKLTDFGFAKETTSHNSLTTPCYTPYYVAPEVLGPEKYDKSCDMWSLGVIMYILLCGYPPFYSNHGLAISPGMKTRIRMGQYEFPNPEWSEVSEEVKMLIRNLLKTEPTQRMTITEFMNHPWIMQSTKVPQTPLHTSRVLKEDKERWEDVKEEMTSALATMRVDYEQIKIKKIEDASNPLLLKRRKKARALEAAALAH
Chain of MSK1b (O75582 whole entry): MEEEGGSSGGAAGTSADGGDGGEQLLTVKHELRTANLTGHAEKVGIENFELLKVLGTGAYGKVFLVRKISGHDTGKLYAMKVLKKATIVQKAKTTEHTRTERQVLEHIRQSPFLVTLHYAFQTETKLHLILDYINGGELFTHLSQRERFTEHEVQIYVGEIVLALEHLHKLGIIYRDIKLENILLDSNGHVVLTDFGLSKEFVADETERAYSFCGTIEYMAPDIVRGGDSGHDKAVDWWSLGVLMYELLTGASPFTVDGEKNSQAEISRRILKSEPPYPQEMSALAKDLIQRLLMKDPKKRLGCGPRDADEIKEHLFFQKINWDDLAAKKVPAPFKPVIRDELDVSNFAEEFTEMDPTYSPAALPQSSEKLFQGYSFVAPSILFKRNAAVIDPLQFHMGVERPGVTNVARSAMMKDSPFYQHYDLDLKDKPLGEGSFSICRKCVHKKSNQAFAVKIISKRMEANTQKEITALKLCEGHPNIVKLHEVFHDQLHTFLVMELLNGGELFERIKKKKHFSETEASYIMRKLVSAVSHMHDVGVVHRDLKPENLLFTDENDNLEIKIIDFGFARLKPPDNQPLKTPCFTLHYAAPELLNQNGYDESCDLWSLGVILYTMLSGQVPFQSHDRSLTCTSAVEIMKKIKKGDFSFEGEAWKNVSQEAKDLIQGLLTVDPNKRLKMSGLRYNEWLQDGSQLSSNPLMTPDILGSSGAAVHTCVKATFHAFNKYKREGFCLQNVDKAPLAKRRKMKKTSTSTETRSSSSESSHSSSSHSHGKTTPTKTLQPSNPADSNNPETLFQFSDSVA

SMILES: CNc1ncc2cc(-c3ccc(-c4cccc(C)n4)cc3Cl)c(=O)n(CC3OCC(N)CO3)c2n1 (centres unmarked) [compound 2, G-5555]
- dTm G-5555 (2) (PIM3; 10 µM, binder): -1.8 °C
- dTm G-5555 (2) (MAP2K4; 10 µM, binder): 6.4 °C
- dTm G-5555 (2) (MAPKAPK2; 10 µM, binder): -0.3 °C
- dTm G-5555 (2) (FGFR2; 10 µM, binder): 0.7 °C
- dTm G-5555 (2) (CaMK4; 10 µM, binder): 0.7 °C
- dTm G-5555 (2) (CK2a1; 10 µM, binder): 0.1 °C
- dTm G-5555 (2) (BRAF; 10 µM, binder): 3.9 °C
- dTm G-5555 (2) (MSK1b; 10 µM, binder): 2.0 °C
- dTm G-5555 (2) (AAK1; 10 µM, binder): 0.6 °C

SMILES: CNc1ncc2cc(-c3ccccc3Cl)c(=O)n(CCCCN)c2n1 [compound 4, 8-(4-Aminobutyl)-6-(2-chlorophenyl)-2-(methylamino)pyrido[2,3-d]pyrimidin-7(8H)-one]
- ΔTm at 10 µM (PIM3; read-out: dTm MR21 (4)): -0.8 °C
- ΔTm at 10 µM (NEK2; read-out: dTm MR21 (4)): 0.5 °C
- ΔTm at 10 µM (MAP2K4; read-out: dTm MR21 (4)): 3.3 °C
- ΔTm at 10 µM (JNK1; read-out: dTm MR21 (4)): 0.9 °C
- ΔTm at 10 µM (MAPKAPK2; read-out: dTm MR21 (4)): 0.1 °C
- ΔTm at 10 µM (FGFR2; read-out: dTm MR21 (4)): 4.7 °C
- ΔTm at 10 µM (CaMK4; read-out: dTm MR21 (4)): 0.8 °C
- ΔTm at 10 µM (CK2a1; read-out: dTm MR21 (4)): -0.4 °C
- ΔTm at 10 µM (BRAF; read-out: dTm MR21 (4)): 12.2 °C
- ΔTm at 10 µM (MSK1b; read-out: dTm MR21 (4)): 2.1 °C
- ΔTm at 10 µM (AAK1; read-out: dTm MR21 (4)): 1.6 °C

SMILES: CNc1ncc2cc(-c3cc(F)ccc3F)c(=O)n(CCCCN)c2n1 [compound 5, 8-(4-Aminobutyl)-6-(2,5-difluorophenyl)-2-(methylamino)pyrido[2,3-d]pyrimidin-7(8H)-one]
- ΔTm at 10 µM (PIM3; read-out: dTm MR22 (5)): -0.6 °C
- ΔTm at 10 µM (NEK2; read-out: dTm MR22 (5)): 1 °C
- ΔTm at 10 µM (MAP2K4; read-out: dTm MR22 (5)): 1.5 °C
- ΔTm at 10 µM (JNK1; read-out: dTm MR22 (5)): 5.5 °C
- ΔTm at 10 µM (MAPKAPK2; read-out: dTm MR22 (5)): -0.1 °C
- ΔTm at 10 µM (FGFR2; read-out: dTm MR22 (5)): 3.7 °C
- ΔTm at 10 µM (CaMK4; read-out: dTm MR22 (5)): -0.6 °C
- ΔTm at 10 µM (CK2a1; read-out: dTm MR22 (5)): 0.4 °C
- ΔTm at 10 µM (BRAF; read-out: dTm MR22 (5)): 9.2 °C
- ΔTm at 10 µM (MSK1b; read-out: dTm MR22 (5)): 1.5 °C
- ΔTm at 10 µM (AAK1; read-out: dTm MR22 (5)): 0.4 °C

SMILES: CNc1ncc2cc(-c3cc(Br)ccc3Cl)c(=O)n(CCCCN)c2n1 [compound 6, 8-(4-Aminobutyl)-6-(5-bromo-2-chlorophenyl)-2-(methylamino)pyrido[2,3-d]pyrimidin-7(8H)-one]
- ΔTm at 10 µM (PIM3; read-out: dTm 6): -0.4 °C
- ΔTm at 10 µM (NEK2; read-out: dTm 6): 2 °C
- ΔTm at 10 µM (MAP2K4; read-out: dTm 6): 2.5 °C
- ΔTm at 10 µM (JNK1; read-out: dTm 6): 0.2 °C
- ΔTm at 10 µM (MAPKAPK2; read-out: dTm 6): -0.7 °C
- ΔTm at 10 µM (FGFR2; read-out: dTm 6): 4.1 °C
- ΔTm at 10 µM (CaMK4; read-out: dTm 6): -0.1 °C
- ΔTm at 10 µM (CK2a1; read-out: dTm 6): 0.2 °C
- ΔTm at 10 µM (BRAF; read-out: dTm 6): 10.8 °C
- ΔTm at 10 µM (MSK1b; read-out: dTm 6): 0.3 °C
- ΔTm at 10 µM (AAK1; read-out: dTm 6): 0.7 °C

SMILES: CNc1ncc2cc(-c3cc(Br)ccc3Cl)c(=O)n(C[C@H]3OC[C@H](N)CO3)c2n1 [compound 7, 8-(((2r,5r)-5-Amino-1,3-dioxan-2-yl)methyl)-6-(5-bromo-2-chlorophenyl)-2-(methylamino)pyrido[2,3-d]pyrimidin-7(8H)-one]
- ΔTm at 10 µM (PIM3; read-out: dTm 7): 0.9 °C
- ΔTm at 10 µM (NEK2; read-out: dTm 7): 2.1 °C
- ΔTm at 10 µM (MAP2K4; read-out: dTm 7): 2.1 °C
- ΔTm at 10 µM (JNK1; read-out: dTm 7): 0.9 °C
- ΔTm at 10 µM (MAPKAPK2; read-out: dTm 7): 0 °C
- ΔTm at 10 µM (FGFR2; read-out: dTm 7): 3.7 °C
- ΔTm at 10 µM (CaMK4; read-out: dTm 7): 0.1 °C
- ΔTm at 10 µM (CK2a1; read-out: dTm 7): 0.4 °C
- ΔTm at 10 µM (BRAF; read-out: dTm 7): 8.3 °C
- ΔTm at 10 µM (MSK1b; read-out: dTm 7): 1.1 °C
- ΔTm at 10 µM (AAK1; read-out: dTm 7): 0.5 °C
